Test results: patent publication US5344932A, “N-(pyrrolo(2,3-d)pyrimidin-3-ylacyl)-glutamic acid derivatives” (Trustees of Princeton University, priority 1991, dated 1994)

Legend:
[1] = tested on: human T-cell derived lyphoblastic leukemia cells (CCRF-CEM); assay: Reversal of cytotoxicity by addition of hypoxanthine/purines, AICA, thymidine or leucovorin; assay type: cell-based
Description: (§1) As noted, the compounds of this invention have an effect on one or more enzymes which utilize folic acid, and in particular metabolic derivatives of folic acid, as a substrate. […] Cytotoxicity is not reversed by addition of purines such as hypoxanthine or by addition of aminoimidazolecarboxamide but is reversed by addition of thymidine, indicating specific inhibition in the tymidylate cycle and not in de novo purine synthesis. The compounds can be used, under the supervision of qualified professionals, to inhibit the growth of neoplasms including choriocarcinoma, leukemia, adenocarcinoma of the female breast, epidermid cancers of the head and neck, squamous or small-cell lung cancer, and various lymphosarcomas. The compounds can also be used to treat mycosis fungoides and psoriasis.
Cytotoxicity is also reversed by addition of leucovorin, indicating the cytotoxicity is due to antagonism of a folate-related mechanism.

L5178Y/TK^- tumor line = assay: In vivo activity against L5178Y/TK^- tumor line in DBA/2 mice (female)
Protocol: In vivo activity can be seen from the following representative data for N-{4-[2-(4-hydroxy-6-aminopyrrolo[2,3-d]pyrimidin-3-yl)ethyl]benzoyl}-L-glutamic acid against the L5178Y/TK^- tumor line in DBA/2 mice (female), administration being ip in a total volume of 0.5 mL daily for eight days: […]

[2] = tested on: human T-cell derived lyphoblastic leukemia cells (CCRF-CEM); assay: Inhibition of growth of CCRF-CEM cell cultures; assay type: cell-based
Description: as §1
Representative inhibition values against CCRF-CEM 5 cell cultures for typical compounds are as follows: […]

[3] = dose 25.00, ip daily for eight days
[4] = dose 50.00, ip daily for eight days
[5] = dose 100.00, ip daily for eight days
[6] = dose 200.00, ip daily for eight days

IC50 [2] [mg/L]	Compound	Reversal of cytotoxicity by addition of aminoimidazolecarboxamide (AICA) ([1]; addition of aminoimidazolecarboxamide (AICA))	Reversal of cytotoxicity by addition of purines such as hypoxanthine ([1]; addition of hypoxanthine)	Reversal of cytotoxicity by addition of thymidine ([1]; addition of thymidine)	Toxicity (L5178Y/TK^- tumor line; dose 12.50, ip daily for eight days)	% Inhibition (L5178Y/TK^- tumor line; [3]) [%]	Toxicity (L5178Y/TK^- tumor line; [3])	Tumor Weight (L5178Y/TK^- tumor line; [3])	% Inhibition (L5178Y/TK^- tumor line; [4]) [%]	Toxicity (L5178Y/TK^- tumor line; [4])	Tumor Weight (L5178Y/TK^- tumor line; [4])	% Inhibition (L5178Y/TK^- tumor line; [5]) [%]	Toxicity (L5178Y/TK^- tumor line; [5])	Tumor Weight (L5178Y/TK^- tumor line; [5])	% Inhibition (L5178Y/TK^- tumor line; [6]) [%]	Toxicity (L5178Y/TK^- tumor line; [6])	Tumor Weight (L5178Y/TK^- tumor line; [6])
–	Nc1nc2[nH]cc(CCc3ccc(C(=O)N[C@@H](CCC(=O)O)C(=O)O)cc3)c2c(=O)[nH]1	not reversed	not reversed	reversed	0/7	100	0/7	0 ± 0	100	0/6	0 ± 0	100	0/7	0 ± 0	100	0/7	0 ± 0
> 20	Nc1nc(O)c2c(CCc3ccc(C(=O)N[C@@H](CCC(=O)O)C(=O)O)o3)c[nH]c2n1 [N-{5-[2-(4-hydroxy-6-aminopyrrolo[2,3-d]pyrimidin-3-yl)ethyl]fur-2-ylcarbonyl}-L-glutamic acid]	–	–	–	–	–	–	–	–	–	–	–	–	–	–	–	–
